“Also recorded” adds a separate entry of the source.
Tests used:
[1] = test system: 2PN (two pronuclei) mouse embryos; test: Mouse embryo development after incubation in fluorinated compounds; assay type: cell-based; conditions: for Mean T2 to T3 (mean time from 2-cell stage to 3-cell stage) / # embryos showing degeneration / Pace of embryo development compared to untreated control embryos / Mean T2 (mean time taken to reach the 2-cell stage): incubated 3 minutes in compound; for # embryos showing degeneration / Pace of embryo development compared to untreated control embryos: cultured 5 days; for Mean T2 (mean time taken to reach the 2-cell stage): embryos that reached 2-cell stage; for # 2-cell stage / # 3-cell stage / # expanded blastocyst / # hatching/hatched blastocyst: number of embryos; for # 2-cell stage / # 3-cell stage / # expanded blastocyst / # hatching/hatched blastocyst / # 2-cell stage (%) / # 3-cell stage (%) / # expanded blastocyst (%) / # hatching/hatched blastocyst (%): incubated 3 minutes, within 5-day incubation; for # 2-cell stage (%) / # 3-cell stage (%) / # expanded blastocyst (%) / # hatching/hatched blastocyst (%): proportion of 2PN embryos
Description: The effects of incubation in different fluorinated compounds on embryo development were tested.
223 2PN (two pronuclei) mouse embryos were randomly divided into four groups: A) raw perfluoro-n-octane; B) a commercially available perfluorohydrocarbon mixture previously used as operating liquid for Piezo-ICSI; C) purified perfluoro-n-octane; and D) untreated control.
Embryos in groups A, B and C were incubated for 3 minutes in the respective compound then transferred to culture medium. Embryos in all groups were then cultured for 5 days in an incubator (37.5° C., relative 100% humidity, 5% CO2 in air).
The number of embryos in each group showing signs of degeneration was counted.
The number of embryos in each group reaching the 2-cell, 3-cell, expanded blastocyst and hatching/hatched blastocyst stages of development within the 5-day incubation was counted.
The mean time taken to reach the 2-cell stage (T2) by those embryos that did, and the mean time taken for those embryos to develop from the 2-cell stage to the 3-cell stage (T3) were measured.

oocytes = test: Assisted reproduction using Piezo-ICSI with purified perfluoro-n-octane operating liquid compared to c-ICSI; assay type: in vivo, human; conditions: Piezo-ICSI with purified perfluoro-n-octane as operating liquid
Description: The efficacy of assisted reproduction using c-ICSI was compared to using Piezo-ICSI was compared. Purified perfluoro-n-octane was used as operating liquid for Piezo-ICSI.
In particular, 69 patients having at least 6 mature oocytes were randomly divided into two groups. The first group underwent assisted reproduction in which sperm was introduced into oocytes using c-ICSI. The second group underwent assisted reproduction in which sperm was introduced into oocytes using Piezo-ICSI.
c-ICSI was performed using Eppendorf 2K control with ICSI micropipettes (TPC, Cooper Surgical). Piezo-ICSI was performed using PMM and Piezo micropipettes (Primetech). Purified perfluoro-n-octane was used as operating liquid in Piezo-ICSI.

[2] = 25° C.; cited from earlier work

| Structure (SMILES) | Mean T2 to T3 (mean time from 2-cell stage to 3-cell stage) [1] [min] | # embryos showing degeneration [1] | Pace of embryo development compared to untreated control embryos [1] | Mean T2 (mean time taken to reach the 2-cell stage) [1] [min] | # 2-cell stage [1] | # 3-cell stage [1] | # expanded blastocyst [1] | # hatching/hatched blastocyst [1] | # 2-cell stage (%) [1] | # 3-cell stage (%) [1] | # expanded blastocyst (%) [1] [%] | # hatching/hatched blastocyst (%) [1] [%] | Additional embryos for vitrification on average compared to c-ICSI (oocytes) | Average number of embryos for vitrification (oocytes; c-ICSI 2.7) | Oocyte degeneration rate (oocytes; c-ICSI 10.2%) [%] | Utilisation rate (oocytes; c-ICSI 45.6%) [%] | Clinical pregnancy rate (oocytes; c-ICSI 50%) [%] | Fertilization rate (oocytes successfully fertilised) (oocytes; c-ICSI 65.9%, p<0.05) [%] | Surface tension [2] [mN/m] | Vapour pressure [2] [mbar] |
| --- | --- | --- | --- | --- | --- | --- | --- | --- | --- | --- | --- | --- | --- | --- | --- | --- | --- | --- | --- | --- |
| FC(F)(F)C(F)(F)C(F)(F)C(F)(F)C(F)(F)C(F)(F)C(F)(F)C(F)(F)F [raw perfluoro-n-octane, perfluoro-n-octane] | 1518 | 0 | developed more slowly than control embryos | 1394 | 52 | 45 | 36 | 9 | (95%) | (82%) | 65 | 16 | – | – | – | – | – | – | – | – |
| FC(F)(F)C(F)(F)C(F)(F)C(F)(F)C(F)(F)C(F)(F)C(F)(F)C(F)(F)F [purified perfluoro-n-octane, perfluoro-n-octane] | 1293 | 0 | developed at a pace comparable to untreated control embryos; also recorded: does not negatively affect embryo development | 1304 | 51 | 48 | 45 | 33 | (93%) | (87%) | 82 | 60 | 1 | 3.8 | 3.8 | 47.3 | 55 | 80.6 | – | – |
| FC(F)(F)C(F)(F)C(F)(F)C(F)(F)C(F)(F)C(F)(F)C(F)(F)C(F)(F)F [perfluoro-n-octane, 1,1,1,2,2,3,3,4,4,5,5,6,6,7,7,8,8,8-octadecafluorooctane] | – | none | – | – | – | – | – | – | – | – | – | – | – | – | – | – | – | – | 16 | 3.4 |
